From the NIST ThermoML archive (doi:10.1016/j.jct.2006.11.001)

Experiments:
[1] = molar heat capacity at constant pressure; conditions: Liquid, thermal relaxation method
[2] = molar heat capacity at constant pressure; xn = mol fraction of the nth substance listed; conditions: Liquid, thermal relaxation method

CO [methanol]
molar heat capacity at constant pressure [J/K/mol], [1]
Conditions	100 kPa	1000 kPa	5000 kPa	10000 kPa	15000 kPa
280 K	77.22	74.02	73.7	–	–
320 K	87.15	85.87	84.27	–	–
360 K	–	97.41	94.2	94.52	97.09

CO [methanol] + O
molar heat capacity at constant pressure [J/K/mol], [2]
Conditions	x1 = 0.0496	x1 = 0.101	x1 = 0.1936	x1 = 0.2606	x1 = 0.4949	x1 = 0.7943
280 K, 100 kPa	81.21	82.78	82.72	82.56	79.36	77.85
280 K, 1000 kPa	81.39	83.75	85	85.38	82.11	80.76
280 K, 5000 kPa	82.14	83.95	85.2	84.52	79.61	76.97
320 K, 100 kPa	80.27	84.53	87.9	89.5	89.35	89.22
320 K, 1000 kPa	79.52	83.75	88.52	89.72	89.1	87.76
320 K, 5000 kPa	81.95	85.5	89.76	91.67	88.6	87.76
360 K, 1000 kPa	81.02	84.72	90.8	92.75	94.34	94.47
360 K, 5000 kPa	80.83	84.53	90.59	92.97	93.59	94.47
360 K, 10000 kPa	82.52	86.28	92.87	95.35	95.09	95.92
360 K, 15000 kPa	82.52	86.67	92.25	95.57	95.58	95.63
